# Test results: US9708318B2, “Bicyclic heterocycles as FGFR4 inhibitors” (Incyte Corporation, priority 2015, dated 2017)
# Read-outs that look alike come from different tables or passages of the source.
# Key:
# [1] = molecular target: FGFR2 (Homo sapiens (Human), UniProt P21802); assay: FGFR Enzymatic Assay (FRET peptide phosphorylation), FGFR2; assay type: biochemical; details: pre-incubated for 4 hours
# Protocol: (§1) The inhibitor potency of the exemplified compounds was measured in an enzyme assay that measures peptide phosphorylation using FRET measurements to detect product formation. Inhibitors were serially diluted in DMSO and a volume of 0.5 μL was transferred to the wells of a 384-well plate.
# (§2) The enzymes were purchased from Millipore or Invitrogen.
# (§3) GraphPad prism3 was used to analyze the data.
# [2] = molecular target: FGFR3 enzyme (Homo sapiens (Human), UniProt P22607); assay: FGFR Enzymatic Assay (FRET peptide phosphorylation), FGFR3; assay type: biochemical; details: pre-incubated for 4 hours; for FGFR1/FGFR3 IC50 ratio / FGFR4/FGFR3 IC50 ratio: FGFR3 selectivity; for IC50: read-out: FGFR3 IC50
# Chain of FGFR3 enzyme (P22607 23-806): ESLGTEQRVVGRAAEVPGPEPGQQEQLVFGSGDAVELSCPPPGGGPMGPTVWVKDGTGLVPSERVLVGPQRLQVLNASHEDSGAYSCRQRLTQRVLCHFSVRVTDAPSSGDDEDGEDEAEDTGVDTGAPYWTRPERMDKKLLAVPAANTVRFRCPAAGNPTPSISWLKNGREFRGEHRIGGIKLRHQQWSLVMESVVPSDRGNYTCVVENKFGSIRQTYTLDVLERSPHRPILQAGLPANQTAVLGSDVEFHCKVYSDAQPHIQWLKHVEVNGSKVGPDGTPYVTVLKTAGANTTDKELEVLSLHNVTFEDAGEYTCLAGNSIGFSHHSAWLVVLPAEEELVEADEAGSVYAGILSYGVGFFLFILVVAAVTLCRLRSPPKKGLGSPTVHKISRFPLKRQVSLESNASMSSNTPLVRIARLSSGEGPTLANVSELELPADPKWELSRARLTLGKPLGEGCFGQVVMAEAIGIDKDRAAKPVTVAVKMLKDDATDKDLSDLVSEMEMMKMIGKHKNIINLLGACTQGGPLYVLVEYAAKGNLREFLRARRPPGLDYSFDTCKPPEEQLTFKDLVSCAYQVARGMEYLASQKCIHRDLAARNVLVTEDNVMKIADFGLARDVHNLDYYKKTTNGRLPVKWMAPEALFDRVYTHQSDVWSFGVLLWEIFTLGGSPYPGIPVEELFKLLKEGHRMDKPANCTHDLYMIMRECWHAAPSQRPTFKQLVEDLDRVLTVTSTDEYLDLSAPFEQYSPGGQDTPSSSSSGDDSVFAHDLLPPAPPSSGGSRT
# Protocol: as §1, §3
# [3] = molecular target: FGFR4 (Homo sapiens (Human), UniProt P22455); assay: FGFR Enzymatic Assay (FRET peptide phosphorylation), FGFR4; assay type: biochemical; details: pre-incubated for 4 hours; for FGFR1/FGFR4 IC50 ratio / FGFR2/FGFR4 IC50 ratio / FGFR3/FGFR4 IC50 ratio: FGFR4 selectivity
# Chain of FGFR4 (P22455 22-802): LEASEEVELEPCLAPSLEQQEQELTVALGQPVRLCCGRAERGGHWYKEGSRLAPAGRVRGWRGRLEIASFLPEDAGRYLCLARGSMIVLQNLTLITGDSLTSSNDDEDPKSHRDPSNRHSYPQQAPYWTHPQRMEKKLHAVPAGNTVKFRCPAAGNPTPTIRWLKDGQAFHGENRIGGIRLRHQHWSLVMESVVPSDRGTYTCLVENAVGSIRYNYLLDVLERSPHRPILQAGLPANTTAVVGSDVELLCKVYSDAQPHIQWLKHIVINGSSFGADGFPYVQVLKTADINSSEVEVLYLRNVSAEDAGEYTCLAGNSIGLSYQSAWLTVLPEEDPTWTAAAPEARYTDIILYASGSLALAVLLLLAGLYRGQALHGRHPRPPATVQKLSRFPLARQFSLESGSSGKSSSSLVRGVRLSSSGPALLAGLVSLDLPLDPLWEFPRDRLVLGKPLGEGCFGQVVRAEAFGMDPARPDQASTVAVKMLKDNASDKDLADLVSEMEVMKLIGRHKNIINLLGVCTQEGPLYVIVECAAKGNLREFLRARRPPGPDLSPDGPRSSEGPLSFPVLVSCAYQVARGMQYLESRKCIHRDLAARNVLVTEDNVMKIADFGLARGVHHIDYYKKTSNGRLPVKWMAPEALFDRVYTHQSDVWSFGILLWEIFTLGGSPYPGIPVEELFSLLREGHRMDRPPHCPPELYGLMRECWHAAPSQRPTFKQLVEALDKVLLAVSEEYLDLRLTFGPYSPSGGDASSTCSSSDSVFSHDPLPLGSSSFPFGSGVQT
# Protocol: as §1, §2, §3
# [4] = molecular target: FGFR1 (Homo sapiens (Human), UniProt P11362); assay: FGFR Enzymatic Assay (FRET peptide phosphorylation), FGFR1; details: pre-incubated for 4 hours
# Chain of FGFR1 (P11362 22-822): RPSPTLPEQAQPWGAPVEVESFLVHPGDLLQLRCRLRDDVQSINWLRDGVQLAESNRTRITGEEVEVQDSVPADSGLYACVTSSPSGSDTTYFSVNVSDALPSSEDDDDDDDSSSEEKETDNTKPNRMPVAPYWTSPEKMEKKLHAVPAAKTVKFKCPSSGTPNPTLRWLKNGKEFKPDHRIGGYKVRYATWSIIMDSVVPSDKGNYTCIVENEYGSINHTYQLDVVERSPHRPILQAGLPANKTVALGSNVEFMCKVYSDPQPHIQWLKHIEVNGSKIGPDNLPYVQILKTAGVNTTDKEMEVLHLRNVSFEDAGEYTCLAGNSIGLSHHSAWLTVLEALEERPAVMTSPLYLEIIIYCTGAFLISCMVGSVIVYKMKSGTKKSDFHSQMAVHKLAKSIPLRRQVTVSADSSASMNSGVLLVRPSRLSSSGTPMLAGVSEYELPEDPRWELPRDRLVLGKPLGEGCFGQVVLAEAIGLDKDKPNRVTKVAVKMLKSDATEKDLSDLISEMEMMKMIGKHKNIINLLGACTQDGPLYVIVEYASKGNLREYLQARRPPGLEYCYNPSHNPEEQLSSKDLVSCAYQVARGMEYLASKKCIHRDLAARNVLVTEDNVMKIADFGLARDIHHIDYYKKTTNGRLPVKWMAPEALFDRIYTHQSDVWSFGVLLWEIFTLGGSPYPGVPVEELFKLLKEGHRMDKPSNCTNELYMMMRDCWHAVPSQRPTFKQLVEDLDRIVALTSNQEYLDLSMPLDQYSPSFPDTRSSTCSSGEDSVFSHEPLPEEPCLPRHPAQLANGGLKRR
# Chain of FGFR2 (P21802 22-821): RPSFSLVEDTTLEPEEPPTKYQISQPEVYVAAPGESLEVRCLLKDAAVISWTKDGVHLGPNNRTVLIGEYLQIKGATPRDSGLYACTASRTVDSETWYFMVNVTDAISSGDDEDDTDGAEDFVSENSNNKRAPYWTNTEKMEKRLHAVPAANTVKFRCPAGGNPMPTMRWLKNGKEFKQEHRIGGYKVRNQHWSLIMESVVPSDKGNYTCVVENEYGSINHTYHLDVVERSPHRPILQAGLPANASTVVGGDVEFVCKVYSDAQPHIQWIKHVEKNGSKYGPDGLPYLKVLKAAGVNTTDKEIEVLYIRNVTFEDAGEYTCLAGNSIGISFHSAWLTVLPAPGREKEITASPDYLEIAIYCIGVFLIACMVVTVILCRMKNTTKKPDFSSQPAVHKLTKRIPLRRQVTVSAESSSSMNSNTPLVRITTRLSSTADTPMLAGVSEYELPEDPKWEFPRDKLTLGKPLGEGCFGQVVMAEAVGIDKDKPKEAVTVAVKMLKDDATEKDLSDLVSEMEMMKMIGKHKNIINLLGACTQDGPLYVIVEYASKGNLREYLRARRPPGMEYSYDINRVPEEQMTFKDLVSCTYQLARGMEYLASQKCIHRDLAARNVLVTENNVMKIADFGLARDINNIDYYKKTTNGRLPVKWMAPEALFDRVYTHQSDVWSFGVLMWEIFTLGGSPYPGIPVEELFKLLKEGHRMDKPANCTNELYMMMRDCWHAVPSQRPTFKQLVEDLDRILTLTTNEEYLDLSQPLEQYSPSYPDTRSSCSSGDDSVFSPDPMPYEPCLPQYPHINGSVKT
Compound,IC50 [1] [µM],FGFR1/FGFR3 IC50 ratio [2],FGFR4/FGFR3 IC50 ratio [2],IC50 [2] [µM],IC50 [3] [µM],IC50 ([4]; FGFR1 IC50 (nM)) [nM],IC50 ([4]; read-out: FGFR1 IC50) [nM],FGFR1/FGFR4 IC50 ratio [3],FGFR2/FGFR4 IC50 ratio [3],FGFR3/FGFR4 IC50 ratio [3]
"COc1cc(OC)c(F)c(N2Cc3cnc(-c4cn(Cc5cccnc5)nc4C)cc3C3(CC3)C2=O)c1F [Example 155, 2′-(2,6-difluoro-3,5-dimethoxyphenyl)-6′-(3-methyl-1-(pyridin-3-ylmethyl)-1H-pyrazol-4-yl)-1′H-spiro[cyclopropane-1,4′-[2,7]naphthyridin]-3′(2′H)-one]",0.03 to 0.2,>5,>1,0.01 to 0.03,0.03 to 0.2,30 to 200,,,,
"COc1cc(OC)c(F)c(N2Cc3cnc(-c4cn(CCC#N)nc4C)cc3C3(CC3)C2=O)c1F [Example 156, 3-(4-(2′-(2,6-difluoro-3,5-dimethoxyphenyl)-3′-oxo-2′,3′-dihydro-1′H-spiro[cyclopropane-1,4,-[2,7]naphthyridine]-6′-yl)-3-methyl-1H-pyrazol-1-yl)propanenitrile]",0.01 to 0.03,>5,>1,< 0.01,0.01 to 0.03,30 to 200,,,,
"COc1cc(OC)c(F)c(N2Cc3cnc(-c4cnn(CCN5CCOCC5)c4)cc3C3(CC3)C2=O)c1F [Example 157, 2′-(2,6-difluoro-3,5-dimethoxyphenyl)-6′-(1-(2-morpholinoethyl)-1H-pyrazol-4-yl)-1′H-spiro[cyclopropane-1,4′-[2,7]naphthyridin]-3′(2′H)-one]",< 0.01,>5,>3,< 0.01,< 0.01,10 to 30,,,,
"CCn1cc(-c2cc3c(cn2)CN(c2c(F)c(OC)cc(OC)c2F)C(=O)C32CC2)c(C)n1 [Example 158, 2′-(2,6-difluoro-3,5-dimethoxyphenyl)-6′-(1-ethyl-3-methyl-1H-pyrazol-4-yl)-1′H-spiro[cyclopropane-1,4′-[2,7]naphthyridin]-3′(2′H)-one]",< 0.01,>5,>3,< 0.01,0.01 to 0.03,30 to 200,,,,
"COc1cc(OC)c(F)c(N2Cc3cnc(-c4cn(CC(=O)N5CCOCC5)nc4C)cc3C3(CC3)C2=O)c1F [Example 159, 2′-(2,6-difluoro-3,5-dimethoxyphenyl)-6′-(3-methyl-1-(2-morpholino-2-oxoethyl)-1H-pyrazol-4-yl)-1′H-spiro[cyclopropane-1,4′-[2,7]naphthyridin]-3′(2′H)-one]",0.01 to 0.03,>5,>3,0.01 to 0.03,0.03 to 0.2,30 to 200,,,,
"COc1cc(OC)c(F)c(N2Cc3cnc(-c4csc(N(C)C)n4)cc3C3(CC3)C2=O)c1F [Example 160, 2′-(2,6-difluoro-3,5-dimethoxyphenyl)-6′-(2-(dimethylamino)thiazol-4-yl)-1′H-spiro[cyclopropane-1,4′-[2,7]naphthyridin]-3′(2′H)-one]",< 0.01,>5,>5,< 0.01,0.01 to 0.03,10 to 30,,,,
"COc1cc(OC)c(F)c(N2Cc3cnc(-c4cnn(CCN5CCC(OC)C5)c4)cc3C3(CC3)C2=O)c1F (stereo not shown) [Example 161, 2′-(2,6-difluoro-3,5-dimethoxyphenyl)-6′-(1-(2-(3-methoxypyrrolidin-1-yl)ethyl)-1H-pyrazol-4-yl)-1′H-spiro[cyclopropane-1,4′-[2,7]naphthyridin]-3′(2′H)-one]",< 0.01,>5,>3,< 0.01,0.01 to 0.03,10 to 30,,,,
"COc1cc(OC)c(F)c(N2Cc3cnc(-c4cnn(CC5CCCS(=O)(=O)N5)c4)cc3C3(CC3)C2=O)c1F (stereo not shown) [Example 162, 2′-(2,6-difluoro-3,5-dimethoxyphenyl)-6′-{1-[(1,1-dioxido-1,2-thiazinan-3-yl)methyl]-1H-pyrazol-4-yl}-1′H-spiro[cyclopropane-1,4′-[2,7]naphthyridin]-3′(2′H)-one]",< 0.01,>5,>1,< 0.01,< 0.01,10 to 30,,,,
"COc1cc(OC)c(F)c(N2Cc3cnc(-c4cn(C5CCN(C)C5)nc4C)cc3C3(CC3)C2=O)c1F (stereo not shown) [Example 163, 2′-(2,6-difluoro-3,5-dimethoxyphenyl)-6′-(3-methyl-1-(1-methylpyrrolidin-3-yl)-1H-pyrazol-4-yl)-1′H-spiro[cyclopropane-1,4′-[2,7]naphthyridin]-3′(2′H)-one]",< 0.01,>3,>3,< 0.01,0.03 to 0.2,30 to 200,,,,
"COc1cc(OC)c(F)c(N2Cc3cnc(-c4cn(CCN(C)C)nc4C)cc3C3(CC3)C2=O)c1F [Example 164, 2′-(2,6-difluoro-3,5-dimethoxyphenyl)-6′-(1-(2-(dimethylamino)ethyl)-3-methyl-1H-pyrazol-4-yl)-1′H-spiro[cyclopropane-1,4′-[2,7]naphthyridin]-3′(2′H)-one]",0.01 to 0.03,>3,>3,0.01 to 0.03,0.03 to 0.2,30 to 200,,,,
"COc1cc(OC)c(F)c(N2Cc3cnc(-c4cn(CCC5CCNCC5)nc4C)cc3C3(CC3)C2=O)c1F [Example 165, 2′-(2,6-difluoro-3,5-dimethoxyphenyl)-6′-(3-methyl-1-(2-(piperidin-4-yl)ethyl)-1H-pyrazol-4-yl)-1′H-spiro[cyclopropane-1,4′-[2,7]naphthyridin]-3′(2′H)-one]",< 0.01,>3,>3,< 0.01,0.01 to 0.03,10 to 30,,,,
"COc1cc(OC)c(F)c(N2Cc3cnc(-c4cnn(CC5CN(S(C)(=O)=O)C5)c4)cc3C3(CC3)C2=O)c1F [Example 166, 2′-(2,6-difluoro-3,5-dimethoxyphenyl)-6′-(1-((1-(methylsulfonyl)azetidin-3-yl)methyl)-1H-pyrazol-4-yl)-1′H-spiro[cyclopropane-1,4′-[2,7]naphthyridin]-3′(2′H)-one]",< 0.01,>3,>3,< 0.01,0.01 to 0.03,10 to 30,,,,
"COc1cc(OC)c(F)c(N2Cc3cnc(-c4cnn(CC5CN(C(C)=O)C5)c4)cc3C3(CC3)C2=O)c1F [Example 167, 6′-(1-((1-acetylazetidin-3-yl)methyl)-1H-pyrazol-4-yl)-2′-(2,6-difluoro-3,5-dimethoxyphenyl)-1′H-spiro[cyclopropane-1,4′-[2,7]naphthyridin]-3′(2′H)-one]",< 0.01,>3,>3,< 0.01,0.01 to 0.03,,< 10,,,
"COc1cc(OC)c(F)c(N2Cc3cnc(-c4[nH]ncc4C#N)cc3C3(CC3)C2=O)c1F [Example 171, 5-(2′-(2,6-difluoro-3,5-dimethoxyphenyl)-3′-oxo-2′,3′-dihydro-1′H-spiro[cyclopropane-1,4′-[2,7]naphthyridine]-6′-yl)-1H-pyrazole-4-carbonitrile]",0.03 to 0.2,,,0.03 to 0.2,< 0.01,30 to 200,,>10,>10,>10
"COc1cc(OC)c(F)c(N2Cc3cnc(-c4nn(C)cc4C#N)cc3C3(CC3)C2=O)c1F [Example 172, 3-(2′-(2,6-difluoro-3,5-dimethoxyphenyl)-3′-oxo-2′,3′-dihydro-1′H-spiro[cyclopropane-1,4′-[2,7]naphthyridine]-6′-yl)-1-methyl-1H-pyrazole-4-carbonitrile]",> 0.2,,,> 0.2,0.01 to 0.03,,> 200,>50,>25,>10
"COc1cc(OC)c(F)c(N2Cc3cnc(-c4nn(CC5CCOCC5)cc4C#N)cc3C3(CC3)C2=O)c1F [Example 173, 3-(2′-(2,6-difluoro-3,5-dimethoxyphenyl)-3′-oxo-2′,3′-dihydro-1′H-spiro[cyclopropane-1,4′-[2,7]naphthyridine]-6′-yl)-1-((tetrahydro-2H-pyran-4-yl)methyl)-1H-pyrazole-4-carbonitrile]",> 0.2,,,> 0.2,0.01 to 0.03,,> 200,>100,>100,>50
"COc1cc(OC)c(F)c(N2Cc3cnc(-c4nn(CC#N)cc4C#N)cc3C3(CC3)C2=O)c1F [Example 174, 1-(cyanomethyl)-3-(2′-(2,6-difluoro-3,5-dimethoxyphenyl)-3′-oxo-2′,3′-dihydro-1′H-spiro[cyclopropane-1,4′-[2,7]naphthyridine]-6′-yl)-1H-pyrazole-4-carbonitrile]",> 0.2,,,> 0.2,0.01 to 0.03,,> 200,>100,>10,>25
"CCN1C(=O)N(c2c(F)c(OC)cc(OC)c2F)Cc2cnc(-c3ccc(C(=O)NC4CC4)nc3)cc21 [Example 176, N-cyclopropyl-5-(3-(2,6-difluoro-3,5-dimethoxyphenyl)-1-ethyl-2-oxo-1,2,3,4-tetrahydropyrido[4,3-d]pyrimidin-7-yl)picolinamide]",< 0.01,>10,>5,< 0.01,0.01 to 0.03,10 to 30,,,,
